{"source": "patent US20170273921A1", "about": "“3,5,N-TRIHYDROXY-ALKANAMIDE OR 3,5,N-TRIHYDROXY-6-ALKENAMIDE DERIVATIVE ALONE OR IN COMBINATION WITH CHEMOTHERAPEUTIC AGENT FOR TREATING CANCER” (National Taiwan University, priority 2014, published 2017)", "key": {"[1]": {"system": "various human cancer cell lines", "assay": "Cell viability by MTT cell proliferation assay", "type": "cell-based", "protocol": "Human […] cancer cells (Hela) and breast cancer cells (MD-MBA-231, MCF7) were seeded at 3000 cells/well in 96-well plates and maintained for 14-16 hours, then treated with JMF3086 or gemcitabine or both. After 72 hours, cells were washed with PBS then added medium containing MTT reagent (Sigma) at a final concentration of 0.5 mg/ml for 4 hours. Then, the medium was replaced with 200 μl of DMSO for 30 minutes, and using an ELISA reader (570 nm) to get the absorbance density values. The 50% of inhibition concentration (IC50) of death cells was calculated.\nEffect of three 3,5,N-trihydroxy-alkanamide derivatives, JMF3086, (3R,5R)-7-{(1S,2S,6R,8S,8aR)-hexahydro-2,6-dimethyl-8-[2-dimethylbutyryloxy]naphthalenyl}-3,5-dihydroxy-N-hydroxyheptanamide (also referred to as JMF3171), and (3R,5R)-7-{[2-(4-fluoro-phenyl)-5isopropyl-3-phenyl-4-phenylcarbamoylpyrrol-1-yl]-3,5-dihydroxy-N-hydroxyheptanamide (also referred to as JMF3173) and the corresponding statins on the cell viability of various human cancer cell lines was determined by cell proliferation assay as described in Example 4. Specifically, cancer cells were treated with various concentrations of test compounds for 72 hours, and cell viability was measured by MTT assay. The half maximal inhibitory concentration (IC50) values for individual cell line were calculated."}, "[2]": {"system": "bindings of acetyl-H3K27, CBP, HDAC1 and HDAC3 to promoter", "assay": "Quantitative ChIP (qChIP) assay of promoter binding in HCT116 cells", "type": "cell-based, human", "settings": "FIG. 5D", "protocol": "FIGS. 5A to 5D show genome-wide analysis of target genes in 3,5,N-trihydroxy-alkanamide derivative-treated colorectal cancer cells. […] Ingenuity Pathways Analysis (IPA) analysis predicted that the genes associated with apoptosis were regulated by NR3C1. P=4.30E-37. […] The molecular network has a P-score (−log10 (p-value)) of 48. […] Data were analyzed by the Q-PCR and plotted as percent (%) of input DNA. *P<0.05, **P<0.01 versus basal, two-sided Student t test.\n(§1) Colorectal cancer cells (HCT116) were treated with 30 μM JMF3086 for 24 hours, ChIP assays using control Rabbit IgG (sc-2027; Santa Cruz) or anti-H3K27-ac antibody (#4353; Cell Signaling) were performed as previously described (14).\nTo further investigate these differential effects of JMF3086, the bindings of acetyl-H3K27, CBP, HDAC1 and HDAC3 to promoter were examined by quantitative ChIP (qChIP) assays. JMF3086 reduced the bindings of acetyl-H3K27 and CBP to the promoters of TNF-α, CD166, COX-2, BCL2, CXCL1, CXCL2, EpCAM, CD44, Cyclin D1 and MCL1, but increased those of HDAC1 and HDAC3 to the promoters (FIG. 5D). In contrast, JMF3086 increased the bindings of acetyl-H3K27 and CBP to the promoters of TIMP3, BMP2 and p53 but decreased those of HDAC1 and HDAC3 to their promoters (FIG. 5D)."}, "[3]": {"system": "colorectal cancer cells (HCT116)", "assay": "Experimental colorectal cancer metastasis to the lung (HCT116 injected via tail vein)", "type": "in vivo, nude mice", "settings": "JMF3086 100 mg/kg; FIG. 2E", "protocol": "Besides, to examine the anti-metastatic activity of JMF3086, colorectal cancer cells (HCT116) were intravenously injected into nude mice via the tail vein (FIG. 2D). JMF3086 (100 mg/kg) reduced lung tumor nodules by macroscopic observation (FIG. 2E), indicating its inhibition on lung metastasis."}, "[4]": {"system": "HT29-Luciferase expressing cells", "assay": "Experimental colorectal cancer metastasis to the liver (HT29-Luciferase cells injected into spleen, IVIS imaging)", "type": "in vivo, NOD/SCID mice", "settings": "single agent; JMF3086 oral 5 days/week, oxaliplatin or irinotecan i.p. once a week, two weeks; FIGS. 2B and 2C", "method": "Seven-week-old female NOD/SCID mice were obtained from the National Laboratory Animal Center. The mice were anesthetized by continuous flow of 2-3% isoflurane. To generate liver metastases derived from human colorectal cancer cells in mouse models, HT29-Luciferase expressing cells (1×10^6) were suspended in 100 μl PBS and injected into the spleen of mice. After one-week recovery, the mice were randomized into vehicle and treatment group. […] Mice were then given endotoxon-free luciferse substrate and photographed by IVIS imaging system (Xenogen) once a week. Tumors in spleen and liver were collected and weighed after sacrificed."}, "A549-Luc cells": {"system": "A549-Luc cells", "assay": "Orthotopic lung cancer model (A549-Luc, IVIS imaging)", "type": "in vivo, NOD/SCID mice", "settings": "single agent; JMF3086 oral 5 days/week or cisplatin i.p. once a week, two weeks; FIG. 3B", "protocol": "In this Example, we use A549 cells [non-small cell lung cancer cell line with KRAS mutations (EGFR wild-type)] to establish the orthotopic lung cancer models. Seven-week-old male NOD/SCID mice were anesthetized by continuous flow of 2-3% isoflurane. A549-Luc cells (2×10^6) suspended in 40 μl of PBS were injected percutaneously into the right lung of the mice using 500 μl Gas-Tight syringes with 27G top winged infusion set. These mice were then given endotoxon-free luciferse substrate and photographed using IVIS-200 imaging system once a week. When lung tumor nodules were detected, the mice were oral administration of JMF3086 (5 days/week), intraperitoneally administered cisplatin (once a week) or a combination of JM3086 and cisplatin for additional two weeks (FIG. 3A)."}, "[5]": {"system": "H3K27-Ac binding to gene promoters in HCT116", "assay": "ChIP-on-chip assay of H3K27-Ac in HCT116 cells", "type": "cell-based, human", "protocol": "as §1\nChIP-on-chip assays were performed in the Microarray and Gene Expression Analysis Core Facility of the National Yang-Ming University VGH Genome Research Center in Taiwan using the SurePrint G3 Human Promoter 1×1M Kit (Agilent Technologies) after DNA was further purified through phenol/chloroform/isoamyl alcohol extraction and ethanol precipitation. Genes with two-fold down-regulation or up-regulation of H3K27-Ac in log-ratio after JMF 3086 treatment were regarded as significance."}, "[6]": {"system": "angiogenesis (neovessel formation in matrigel plugs)", "assay": "Subcutaneous matrigel plug angiogenesis assay with conditioned medium of hypoxic HCT116 cells", "type": "in vivo, nude mice", "settings": "HCT116 treated with 30 μM JMF3086 for 20 hours, hypoxia 4 hours; plugs after 14 days; FIG. 2F", "protocol": "Angiogenesis is an essential step of tumor growth and metastasis (13). To determining the effect of JMF3086 on angiogenesis, HCT116 cells treated with 30 μM JMF3086 for 20 hours were exposed to hypoxia for 4 hours, then conditional medium was collected and subcutaneous matrigel plug assay was conducted by injecting of 75 μl conditional medium mixed with 425 μl matrigel and 50 U heparin/ml into nude mice (5 mice/group). Mice were sacrificed and dissected after 14 days. Matrigel plug retrieved from mice were photographed. Quantification of neovessel formation in matrigel plugs were estimated using Drabkin reagent kit 525."}, "AOM/DSS-induced CRC": {"system": "AOM/DSS-induced CRC", "assay": "Animal model of AOM/DSS-induced CRC", "type": "in vivo, male C57BL/6 mice", "settings": "single agent; JMF3086 25 mg/kg oral 5 days/week or oxaliplatin 5 mg/kg i.p. once a week, two weeks; FIG. 1B", "protocol": "FIGS. 1A and 1B show the effect of a 3,5,N-trihydroxy-alkanamide derivative, JMF3086, combined with oxaliplatin on colitis-induced colorectal cancer in vivo. Mice were intraperitoneally injected with AOM (12.5 mg/kg) and maintained for 7 days, then subjected to 3 cycles of DSS treatment (1 cycle representing 5 days of 3.5% DSS followed by 14 days of H2O). […] Scale bars: 1 mm **P<0.01 versus vehicle.\nAOM in conjunction with the additional DSS inflammatory stimulus results in tumor development that is restricted to the colon in mice (11, 12). This model is widely utilized to recapitulate human colorectal cancer because it results in inflammation and ulceration of the entire colon, similar to what is observed in patients (12). CRC was induced in male C57BL/6 mice via the intraperitoneal injection of AOM (12.5 mg/kg) while the mice were maintained with a regular diet and drinking water for 7 days and then subjecting to 3 cycles of DSS treatment, with each cycle consisting of the administration of 3.5% DSS for 5 days followed by a 14-day recovery period with regular water (FIG. 1A). […]"}, "[7]": {"settings": "HCT116, 30 μM, 24 hours, FIG. 5C"}}, "note": "Read-outs that look alike come from different tables or passages of the source.", "data": [{"smiles": "CCC(C)C(=O)O[C@H]1C[C@@H](C)C=C2C=C[C@H](C)[C@H](CC[C@@H](O)C[C@@H](O)CC(=O)NO)[C@H]21", "note": "(stereo partly drawn) [JMF3086, (3R,5R)-7-{(1S,2S,6R,8S,8aR)-hexahydro-2,6-dimethyl-8-[2-methylbutyryloxy]naphthalenyl}-3,5-dihydroxy-N-hydroxyheptanamide]", "values": [{"measurement": "cytotoxicity / cell viability", "setting": "[1]", "value": "cytotoxic"}, {"measurement": "bindings of HDAC1 and HDAC3 to the promoters of TIMP3, BMP2 and p53", "setting": "[2]", "value": "decreased"}, {"measurement": "bindings of HDAC1 and HDAC3 to the promoters of TNF-α, CD166, COX-2, BCL2, CXCL1, CXCL2, EpCAM, CD44, Cyclin D1 and MCL1", "setting": "[2]", "value": "increased"}, {"measurement": "bindings of acetyl-H3K27 and CBP to the promoters of TIMP3, BMP2 and p53", "setting": "[2]", "value": "increased"}, {"measurement": "bindings of acetyl-H3K27 and CBP to the promoters of TNF-α, CD166, COX-2, BCL2, CXCL1, CXCL2, EpCAM, CD44, Cyclin D1 and MCL1", "setting": "[2]", "value": "reduced"}, {"measurement": "lung tumor nodules by macroscopic observation", "setting": "[3]", "value": "reduced"}, {"measurement": "liver metastasis (luciferase activity, IVIS)", "setting": "[4]", "value": "modestly inhibited"}, {"measurement": "lung cancer development (luciferase activity, IVIS)", "setting": "A549-Luc cells", "value": "ineffectively inhibited"}, {"measurement": "number of genes with altered binding of H3K27-acetylation", "setting": "[5]; HCT116, 30 μM JMF3086, 24 hours", "value": "more than 10,000 genes"}, {"measurement": "mRNA expression of genes of inflammation and proliferation, stemness of cancer, and anti-apoptosis", "setting": "[5]; HCT116, 30 μM, 24 hours", "value": "reduced"}, {"measurement": "mRNA expression of tumor suppressors", "setting": "[5]; HCT116, 30 μM, 24 hours", "value": "increased"}, {"measurement": "binding of H3K27-Ac to the gene promoters of inflammation and proliferation, stemness of cancer, and anti-apoptosis", "setting": "[5]; [7]", "value": "inhibited"}, {"measurement": "binding of H3K27-Ac to the gene promoters of tumor suppressors", "setting": "[5]; [7]", "value": "increased"}, {"measurement": "angiogenesis induced by conditioned medium from HCT116 cells under hypoxia (matrigel plug)", "setting": "[6]", "value": "inhibited"}, {"measurement": "number of tumors and sizes", "setting": "AOM/DSS-induced CRC", "value": "modestly reduced"}]}, {"smiles": "CCC(C)(C)C(=O)O[C@H]1C[C@@H](C)C=C2C=C[C@H](C)[C@H](CC[C@@H](O)C[C@@H](O)CC(=O)NO)[C@H]21", "note": "[JMF3171, (3R,5R)-7-{(1S,2S,6R,8S,8aR)-hexahydro-2,6-dimethyl-8-[2-dimethylbutyryloxy]naphthalenyl}-3,5-dihydroxy-N-hydroxyheptanamide]", "values": [{"measurement": "cytotoxicity / cell viability", "setting": "[1]", "value": "cytotoxic"}]}, {"smiles": "CC(C)c1c(C(=O)Nc2ccccc2)c(-c2ccccc2)c(-c2ccc(F)cc2)n1CC[C@@H](O)C[C@@H](O)CC(=O)NO", "note": "[JMF3173]", "values": [{"measurement": "cytotoxicity / cell viability", "setting": "[1]; CRC and various cancer cell lines, 72 hours, MTT, FIG. 4", "value": "cytotoxic"}]}, {"smiles": "N.N.[Cl][Pt][Cl]", "note": "[cisplatin, reference compound]", "values": [{"measurement": "lung cancer development (luciferase activity, IVIS)", "setting": "A549-Luc cells", "value": "ineffectively inhibited"}]}, {"smiles": "CCc1c2c(nc3ccc(OC(=O)N4CCC(N5CCCCC5)CC4)cc13)-c1cc3c(c(=O)n1C2)COC(=O)[C@]3(O)CC", "note": "[irinotecan]", "values": [{"measurement": "liver metastasis (luciferase activity, IVIS)", "setting": "[4]", "value": "modestly inhibited"}]}, {"smiles": "O=C1[O][Pt]2([NH][C@@H]3CCCC[C@H]3[NH]2)[O]C1=O", "note": "[oxaliplatin, reference compound]", "values": [{"measurement": "liver metastasis (luciferase activity, IVIS)", "setting": "[4]", "value": "modestly inhibited"}, {"measurement": "number of tumors and sizes", "setting": "AOM/DSS-induced CRC", "value": "modestly reduced"}]}]}
